Target: T1, Aβ1-40 peptide monomer (Homo sapiens, UniProt P05067)
T1 construct: An Aβ1-40 peptide monomer stock solution was prepared
Test: Inhibition of the seed-triggered aggregation of Aβ1-40 peptide monomer (HPLC quantitation of residual monomer)
Format: biochemical
Details: 50 μm test compound; 20 μM Aβ1-40 monomer; 4 μm pre-formed sonicated Aβ1-40 fibrils (seed); phosphate buffer pH 7.4, 150 mM NaCl; two hours at 37° C.
Procedure: The compounds disclosed in the present invention interfere with the aggregation of monomeric Aβ1-40 peptide stimulated by a seed of Aβ1-40 amyloid fibrils. The activity of the compounds was assessed according to the procedure reported below.
An Aβ1-40 peptide monomer stock solution was prepared by dissolving the peptide in dimethylsulfoxide at a concentration of 33.33 mg/ml. The stock solution was further diluted 11.5 times with dimethylsulfoxide. This solution was then diluted with 10 mM phosphate buffer pH 7.4 containing 150 mM sodium chloride to prepare the test solution.
To an eppendorf tube containing 47 μl of Aβ1-40 peptide monomer solution were added 3 μl of a 830 μM water solution of the test compound containing 66.4 μM, based on the Aβ1-40 monomer content, of pre-formed sonicated Aβ1-40 fibrils: the resulting solution was 20 μM in Aβ1-40 monomer, 50 μm in the test compound and contained 4 μm, based on the Aβ1-40 monomer content, of pre-formed sonicated Aβ1-40 fibrils. The aggregation was allowed to proceed for two hours at 37° C. The suspension was then centrifuged at 15000 rpm for 15 minutes at +4° C., the supernatant was collected and the Aβ1-40 monomer was quantitated by HPLC.
The activity is expressed as the percent of inhibition of the aggregation of a 20 μM Aβ1-40 monomer solution stimulated by 4 μm, based on the Aβ1-40 monomer content, pre-formed sonicated Aβ1-40 fibrils.

T1 sequence (P05067 672-711 limits assumed): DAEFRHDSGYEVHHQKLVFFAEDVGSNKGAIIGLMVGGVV

Row | % INHIBITION of the aggregation of Aβ1-40 monomer [%] | Compound
1 | 33.7 | COc1cccc2c1C(=O)c1c(O)c3c(c(O)c1C2=O)C[C@@](O)(c1csc(NCCN(C)C)n1)C[C@@H]3O [Compound 1d, 9-Deacetyl-9-[2-(2-dimethylaminoethylamino)-thiazol-4-yl]-daunomycinone]
2 | 31.7 | COc1cccc2c1C(=O)c1c(O)c3c(c(O)c1C2=O)C[C@@](O)(c1csc(N2CCN(C)CC2)n1)CC3 [Compound 1i, 7-Deoxy-9-deacetyl-9-[2-(4-methyl-piperazin-1-yl)-thiazol-4-yl]-daunomycinone]
3 | 49.2 | COc1cccc2c1C(=O)c1c(O)c3c(c(O)c1C2=O)C[C@@](O)(c1csc(N2CCN(C)CC2)n1)C[C@@H]3N1CCOCC1 [Compound 1j, 7-Deoxy-7-(4-morpholinyl)-9-deacetyl-9-[2-(4-methyl-perazin-1-yl)-thiazol-4-yl]-daunomycinone]

— patent publication US6316451A, “Heterocyclyl anthracyclinone derivatives” (Pharmacia & Upjohn S.p.A., priority 1998, dated 2001)
